Source: patent US8106155B2, “Test kit for determining process for determining antibiotics containing a beta-lactam ring in a biological fluid” (Neogen Corporation, priority 1998, dated 2012)

What was measured:
[1] = molecular target: T1, BlaR-CTD receptor (Bacillus licheniformis, UniProt P12287); test: 5-minute test: BlaR-CTD coupled to gold beads, membrane test device, milk; format: binding; conditions: test carried out in 5 minutes, 47° C.; positive when 1st band less intense than 2nd band
T1 construct: uses the BlaR-CTD receptor coupled to gold beads
Method: This example illustrates the detection in milk of antibiotics containing a β-lactam ring, which are controlled by the health authorities. The test described in this example uses the BlaR-CTD receptor coupled to gold beads which serve as labelling agents, and uses a support in the form of a test device comprising a solid support to which membranes are attached.
6 samples of fresh milk containing 0; 2; 4; 6; 8 and 10 ppb of cloxacillin, respectively, are prepared. Each of these solutions is then analyzed in the following way.
A 200 μl aliquot sample of milk and 45.27 μl of solution prepared in Example 1.1.3 are taken and placed in a glass flask. This mixture is incubated for 3 minutes at 47° C. A test device is taken and placed vertically in the glass flask such that the first end of the test device is in contact with the mixture and such that the second end rests on the wall of the glass flask. The mixture is left to migrate on the test device, while incubating the assembly for 2 minutes at 47° C.
An intensity value ranging from 0 to 10 is attributed to the bands detected, the value 10 being given to the most intense band and the value 0 being given to the least intense band. According to this scale, a value of 6 is assigned to the reference band. The intensity of the signal observed in the first band is inversely proportional to the amount of cloxacillin present in the sample.
In this example, when the first band has an intesity less than that of the second band, the test is considered as being positive.

[2] = molecular target: T2, BlaR-CTD-β-lactamase fusion protein (UniProt P04190+P12287); test: Example 2: BlaR-CTD-β-lactamase fusion protein with cephalosporin C magnetic beads, milk; format: binding, Bacillus licheniformis; conditions: nitrocefine absorbance at 482 nm, 47° C., detection at concentrations below the US standards listed
T2 construct: made in house; host or cells: E. coli
T2 sequence (P12287+P04190 with tags, fused parts or gaps): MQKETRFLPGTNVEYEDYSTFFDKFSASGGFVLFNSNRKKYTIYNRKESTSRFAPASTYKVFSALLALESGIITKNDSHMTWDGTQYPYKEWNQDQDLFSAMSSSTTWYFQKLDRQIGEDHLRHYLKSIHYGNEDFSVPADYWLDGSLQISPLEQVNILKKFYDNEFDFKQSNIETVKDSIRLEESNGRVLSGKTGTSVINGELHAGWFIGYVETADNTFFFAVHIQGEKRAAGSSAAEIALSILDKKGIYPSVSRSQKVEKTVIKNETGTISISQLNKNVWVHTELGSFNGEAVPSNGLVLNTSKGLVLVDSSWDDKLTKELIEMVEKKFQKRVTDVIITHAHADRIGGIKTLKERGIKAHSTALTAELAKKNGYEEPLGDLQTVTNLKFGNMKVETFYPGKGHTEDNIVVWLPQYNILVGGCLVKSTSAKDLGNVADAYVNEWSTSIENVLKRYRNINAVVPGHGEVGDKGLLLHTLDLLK
Text: This example illustrates the detection in milk of the 6 antibiotics containing a β-lactam ring which are controlled by the US authorities. The test described in this example uses the BlaR-CTD receptor in the form of a fusion protein with β-lacatamase and uses a support in the form of magnetic beads.
The BlaR-CTD-β-lactamase fusion protein is obtained by genetic coupling between the BlaR-CTD receptor (B. Joris et al., FEMS Microbiology Letters, 107-114, 1990) and Zn β-lactamase from Bacillus cereus (M. Hussain et al., 1985, J. Bact., 164:1, 223-229, 1985).
BioMag 4100 particles (available from DRG Instrument GmbH, Marburg, Germany, under the reference AM 4100 B) are used, the NH2 ends of which have been activated with glutaraldehyde in the following way: • one volume of initial solution of BioMag 4100 particles is rinsed 4 times with 5 volumes of 0.01M pH 6.0 pyridine buffer. The particles are taken up in 2.5 volumes of glutaraldehyde at 5% in pyridine buffer and are agitated by rotation for 3 hours at room temperature. They are then rinsed 10 times with 2 volumes of 0.01 M pH 7.0 Kpi buffer. The particles are then resuspended in 1 volume of 0.1 M cephalosporin C in Kpi buffer and are agitated by rotation overnight at +4° C. The final rinsing is carried out until the cephalasporin C has been completely removed from the 0.1 M pH 7.0 Kpi buffer. 2.3. Determination of the 6 Antibiotics Penicillin G, Ampicillin, Amoxicillin, Cloxacillin, Cephapirin and Certiofur in Milk. […]
50 μl of solution 1 are placed in the presence of […] of doped milk samples and incubated at 47° C. for 2 minutes. […] The absorbance of the residual solution at 482 nm is then measured relative to the nitrocefine solution.

[3] = molecular target: T3, BlaR-CTD receptor in the form of a fusion protein with alkaline phosphatase or peroxidase (Bacillus licheniformis, UniProt P12287); test: Example 4: BlaR-CTD fusion protein with alkaline phosphatase or peroxidase, coated tube, milk; format: binding; conditions: absorbance at 405 nm, 47° C.
T3 construct: uses the BlaR-CTD receptor in the form of a fusion protein with alkaline phosphatase or peroxidase
Method: The test described in this example uses the BlaR-CTD receptor in the form of a fusion protein with alkaline phosphatase or peroxidase, and uses a support in the form of a coated tube.
In this example, polystyrene tubes with high protein absorption of the brand name NUNK (Maxisorp type) are used, which are treated with a reference antibiotic solution as indicated in Example 3.3.2.
7 picomol of recognition agent are incubated in the presence of 500 μl of milk for 5 minutes at 47° C. in an Eppendorf tube. […] The milk is then incubated for 2 minutes at 47° C. After removing the milk, the tube is washed twice with 1 ml of 1 M, pH 9.8 diethanolamine buffer, 0.5 mM MgCl2. […] The absorbance of the supernatant is then measured using a spectrophotometer whose wavelength is set at 405 nm.

[4] = test system: protein isolated from an antibiotic-sensitive microorganism, such as Bacillus stearothermophilus; conditions: Example 1 of European Patent Application 593 112; cited from earlier work

| SMILES | concentration detected in a sample of milk [1] | concentration detected in milk [2] | concentration determined in milk [3] | concentration detected [4] |
| --- | --- | --- | --- | --- |
| CO/N=C(\C(=O)N[C@@H]1C(=O)N2C(C(=O)O)=C(CSC(=O)c3ccco3)CS[C@H]12)c1csc(N)n1 [ceftiofur] | 100 ppb | < 50 ppb | less than 50 ppb | 5 ppb |
| CC(=O)OCC1=C(C(=O)O)N2C(=O)[C@@H](NC(=O)CSc3ccncc3)[C@H]2SC1 [cephapirin] | 16 ppb | < 20 ppb | less than 20 ppb | 5 ppb |
| CC1(C)S[C@@H]2[C@H](NC(=O)Cc3ccccc3)C(=O)N2[C@H]1C(=O)O [penicillin G] | 3 ppb | < 5 ppb | less than 5 ppb | ~5 ppb |
